Read-outs that look alike come from different tables or passages of the source.
How the values were obtained:
[1] = set-up: species or system rats; conditions: rat, in vivo
Procedure: The binding of aminoglycosides to sputum of CF patients is a concern, particularly if this binding reduces the bioactivity of the antiinfective (Hunt et al., 1995). To determine whether liposomal formulations of amikacin can retain biological activity over a prolonged period of time, normal rats were administered liposomal formulations of amikacin by intratracheal instillation. This was followed by its removal at 2 or 24 hours via a bronchial alveolar lavage (BAL) to determine biological activity. […] Amikacin concentration was determined employing a TDX instrument and biological activity determined using a Mueller Hinton broth dilution assay (Pseudomonas aeruginosa).

[2] = Clinical chemical assay (TDX) of aminoglycoside content in tissue of treated infected rats; type: in vivo; conditions: Sprague-Dawley, other: intratracheal (IT), 10 mg/rat
Procedure: […] The clinical chemical assay was performed using a TDX instrument while the bioassay was performed by measuring inhibition zones on agar plates embedded with Bacillus subtilis.

P. aeruginosa PA01 = test: In vitro release and activity in Slide-A-Lyzer cartridges, CFU after 24 hrs; type: cell-based; conditions: amikacin 50 μg/mL, preliminary experiments
Procedure: An in vitro test of release and activity was performed under conditions similar to the pharmacokinetics in the lung, where it has been previously shown that free antibiotic is cleared on the time scale of a few hours. […] Free drug dialyzes out of the cartridges on the time scale of hours under these conditions. After 24 hrs., the samples were withdrawn from the cartridges and plated to measure CFU.

rat alveolar macrophages = conditions: in vivo
Excerpt: The basal and stimulated functions of rat alveolar macrophages obtained by lavage were studied with and without administration of liposomal amikacin formulations and compared to various controls.

[3] = Bioavailability of amikacin from inhaled liposomal amikacin formulations: lung homogenate levels; conditions: CD IGS, rat, in vivo, 5 mg/kg
[4] = mouse, in vivo, po, 15 mg/kg
[5] = lung homogenate, homogenized rat lungs following the 14 day experiment, read-out: Clinical Assay

Compound	drug in a BAL [1]	concentration at 14 day [2, 5] [ng/mL]	concentration at 14 day ([2]; rat, kidney, kidneys, following the 14 day experiment, read-out: detectable levels of aminoglycoside in the kidneys) [ng/mL]	reduction of CFUs (P. aeruginosa PA01)	inflammatory response in the lungs (nitrates and TNF-α in BALF) (rat alveolar macrophages)	concentration at 24 h [3] [ng/g]	detectability of drug in the lung over time [4]
NC[C@H]1O[C@H](O[C@H]2[C@H](O)[C@@H](O[C@H]3O[C@H](CO)[C@@H](O)[C@H](N)[C@H]3O)[C@H](N)C[C@@H]2N)[C@H](N)C[C@@H]1O [Free tobramycin, tobramycin]	undetectable	1400	100				
NCC[C@H](O)C(=O)N[C@@H]1C[C@H](N)[C@@H](O[C@H]2O[C@H](CN)[C@@H](O)[C@H](O)[C@H]2O)[C@H](O)[C@H]1O[C@H]1O[C@H](CO)[C@@H](O)[C@H](N)[C@H]1O [Free amikacin, amikacin]		2000		only slightly reduced the CFU	did not produce a significant acute or delayed inflammatory response	~500000	
O=C(O)c1cn(C2CC2)c2cc(N3CCNCC3)c(F)cc2c1=O [free ciprofloxacin, ciprofloxacin]							undetectable in less than two hours

Source: patent US8802137B2, “Sustained release of antiinfectives” (Insmed Incorporated, priority 2002, dated 2014)
